# Reference: patent publication US12145939B2, “Substituted [1,2,4]triazolo[4,3-a]pyrazines as ion channel modulators” (PRAXIS PRECISION MEDICINES, INC., priority 2019, dated 2024)
# Target: T1, human NaV1.6 (hNaV1.6) (Homo sapiens, UniProt Q9UQD0)
# T1 construct: expressed in transfected cells; host or cells: HEK-293
# Test: Modulation of late sodium current (INaL) at hNaV1.6, PatchXpress electrophysiology
# Type: cell-based
# Conditions: HEK293, HEK-293 cells expressing recombinant human NaV 1.6, late current evoked by 300 nM ATX-II, read-out: NaV 1.6 Assay Data (percent inhibition of INaL at hNaV1.6)
# Experimental: Functional characterization of exemplary compounds to modulate INaL expressed by the NaV1.6 voltage-gated sodium channel was accomplished using the PatchXpress™ high throughput electrophysiology platform (Molecular Devices, Sunnyvale, CA). HEK-293 cells expressing recombinant, human NaV1.6 (hNaV1.6) were grown in DMEM/high-glucose Dulbecco's modified, 10% FBS, 2 mM sodium pyruvate, 10 mM HEPES and 400 μg/mL G418. Cells were grown to 50%-80% confluency prior to harvesting. Trypsinized cells were washed, allowed to recover for 1 hour and then resuspended in extracellular recording solution at a concentration of 1×10^6 cells/ml. The onboard liquid handling facility of the PatchXpress was used for dispensing cells and applying test compounds. NaV late currents were evoked by the application of 300 nM ATX-II. INaL was evoked by depolarizing pulses to 0 mV for 200 ms from a non-inactivating holding potential (e.g., −120 mV) at a frequency of 0.1 Hz. INaL amplitude and stability were determined by analyzing the mean current amplitude over the final 20 ms of the test pulse. Following steady state block with exemplary compounds (e.g., as described herein), a Na+ free solution containing an impermeant cation (e.g., Choline or NDMG) was added to confirm the identity of the sodium current. Percent steady-state inhibition of INaL was calculated as: […], where INaL_compound and INaL_control represent INaL recorded in the presence or absence of compound, respectively.
# Results from this assay relating to percent inhibition of INaL at hNaV1.6 (measured using a procedure similar to described above but using HEK-293 cells expressing recombinant, human NaV 1.6 (h NaV 1.6) at 1 μM are summarized in Table 1 below. In this table, “A” indicates inhibition of less than 30%; “B” indicates inhibition of between about 30% to about 70%; and “C” indicates inhibition of greater than 70%. “N/A” indicates not available.
# T1 sequence (Q9UQD0 whole entry): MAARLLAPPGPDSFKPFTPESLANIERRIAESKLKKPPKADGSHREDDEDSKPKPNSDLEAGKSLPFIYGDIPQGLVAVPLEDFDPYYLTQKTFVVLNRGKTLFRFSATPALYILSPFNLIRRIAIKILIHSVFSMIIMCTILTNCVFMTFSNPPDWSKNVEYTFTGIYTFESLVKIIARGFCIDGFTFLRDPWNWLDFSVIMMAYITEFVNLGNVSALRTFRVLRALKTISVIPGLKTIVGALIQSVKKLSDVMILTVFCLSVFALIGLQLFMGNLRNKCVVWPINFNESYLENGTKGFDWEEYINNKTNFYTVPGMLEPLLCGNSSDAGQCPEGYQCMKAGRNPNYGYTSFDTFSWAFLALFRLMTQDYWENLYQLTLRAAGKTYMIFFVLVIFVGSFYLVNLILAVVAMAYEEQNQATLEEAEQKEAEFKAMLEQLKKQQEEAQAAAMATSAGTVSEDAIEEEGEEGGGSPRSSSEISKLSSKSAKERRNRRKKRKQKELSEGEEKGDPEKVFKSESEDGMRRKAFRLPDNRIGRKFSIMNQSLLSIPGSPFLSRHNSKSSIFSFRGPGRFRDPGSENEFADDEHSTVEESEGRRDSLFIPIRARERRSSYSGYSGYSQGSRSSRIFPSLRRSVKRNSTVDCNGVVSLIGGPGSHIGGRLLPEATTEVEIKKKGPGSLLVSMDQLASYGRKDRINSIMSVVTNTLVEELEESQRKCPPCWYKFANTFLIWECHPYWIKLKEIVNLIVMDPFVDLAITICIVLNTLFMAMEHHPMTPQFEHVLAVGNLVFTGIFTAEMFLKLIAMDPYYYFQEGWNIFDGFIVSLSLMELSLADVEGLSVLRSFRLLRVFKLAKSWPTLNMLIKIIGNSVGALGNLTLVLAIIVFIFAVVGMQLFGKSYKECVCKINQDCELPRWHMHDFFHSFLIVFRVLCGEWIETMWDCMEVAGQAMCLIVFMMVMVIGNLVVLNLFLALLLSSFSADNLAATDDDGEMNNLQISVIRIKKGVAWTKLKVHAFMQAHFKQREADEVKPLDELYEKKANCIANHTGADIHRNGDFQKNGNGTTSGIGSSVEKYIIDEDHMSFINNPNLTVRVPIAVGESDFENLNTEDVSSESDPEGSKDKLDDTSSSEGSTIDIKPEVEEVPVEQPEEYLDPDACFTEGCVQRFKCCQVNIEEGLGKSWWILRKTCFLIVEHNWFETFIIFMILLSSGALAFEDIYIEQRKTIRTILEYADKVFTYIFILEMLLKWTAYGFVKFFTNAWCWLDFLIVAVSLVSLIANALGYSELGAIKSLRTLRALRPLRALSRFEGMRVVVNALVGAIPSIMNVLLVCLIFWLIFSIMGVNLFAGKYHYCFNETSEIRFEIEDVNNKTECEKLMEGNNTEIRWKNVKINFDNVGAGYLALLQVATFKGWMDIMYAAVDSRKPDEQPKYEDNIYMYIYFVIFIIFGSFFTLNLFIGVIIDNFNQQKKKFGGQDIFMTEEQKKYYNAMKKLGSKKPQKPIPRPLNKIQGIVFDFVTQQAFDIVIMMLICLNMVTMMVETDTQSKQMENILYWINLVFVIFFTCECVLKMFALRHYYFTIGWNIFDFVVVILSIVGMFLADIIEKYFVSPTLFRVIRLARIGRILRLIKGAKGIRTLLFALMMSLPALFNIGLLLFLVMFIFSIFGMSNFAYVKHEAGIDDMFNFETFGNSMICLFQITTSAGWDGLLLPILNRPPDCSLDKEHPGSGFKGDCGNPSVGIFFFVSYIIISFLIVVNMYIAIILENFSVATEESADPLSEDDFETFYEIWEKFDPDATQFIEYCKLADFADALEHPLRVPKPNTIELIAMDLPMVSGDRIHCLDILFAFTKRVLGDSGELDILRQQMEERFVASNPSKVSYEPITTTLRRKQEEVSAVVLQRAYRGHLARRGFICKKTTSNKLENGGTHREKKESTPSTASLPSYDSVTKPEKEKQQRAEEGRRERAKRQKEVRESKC
row,SMILES,inhibition at 1 µM [%]
1,"COC(F)(F)c1nnc2cnc(-c3ccc([C@H](C)OCC(F)(F)F)cc3)cn12 (single isomer, unassigned) [Compound III-18]",< 30
2,"CCOC(F)(F)c1nnc2cnc(-c3ccc(OC(F)(F)F)cc3C3CC3)cn12 [Compound III-2, 6-[2-cyclopropyl-4-(trifluoromethoxy)phenyl]-3-[ethoxy(difluoro)methyl]-[1,2,4]triazolo[4,3-a]pyrazine]",> 70
3,"CCOC(C)(C)c1nnc2cnc(-c3cnc(OC(C)(C)C(F)(F)F)c(F)c3)cn12 [Compound II-11, 3-(2-ethoxypropan-2-yl)-6-(5-fluoro-6-((1,1,1-trifluoro-2-methylpropan-2-yl)oxy)pyridin-3-yl)-[1,2,4]triazolo[4,3-a]pyrazine]",30 to 70
4,"CCO[C@@H](C)c1nnc2cnc(-c3ccc(OC(C)(C)C(F)(F)F)nc3)cn12 [Compound I-8, (S)-3-(1-ethoxyethyl)-6-(6-((1,1,1-trifluoro-2-methylpropan-2-yl)oxy)pyridin-3-yl)-[1,2,4]triazolo[4,3-a]pyrazine]",30 to 70
5,"CO[C@H](C)c1nnc2cnc(-c3cnc(O[C@@H](C4CC4)C(F)(F)F)c(F)c3)cn12 (single isomer, unassigned) [Compound I-17]",< 30
6,"CCOC(F)(F)c1nnc2cnc(-c3ccc(COCC(F)(F)F)cc3C)cn12 [Compound III-5, 3-[ethoxy(difluoro)methyl]-6-[2-methyl-4-(2,2,2-trifluoroethoxymethyl)phenyl]-[1,2,4]triazolo[4,3-a]pyrazine]",30 to 70
7,"CCO[C@@H](C)c1nnc2cnc(-c3cnc(OC(C)(C)C(F)(F)F)c(F)c3)cn12 [Compound I-12, 6-[5-fluoro-6-(2,2,2-trifluoro-1,1-dimethyl-ethoxy)-3-pyridyl]-3-[(1S)-1-ethoxyethyl]-[1,2,4]triazolo[4,3-a]pyrazine]",30 to 70
8,"CO[C@@H](C)c1nnc2cnc(-c3ccc(OC(C)(C)C(F)(F)F)nc3)cn12 (single isomer, unassigned) [Compound I-10]",30 to 70
9,"FC(F)(F)c1nnc2cnc(-c3ccc(O[C@H](C4CC4)C(F)(F)F)nc3)cn12 (single isomer, unassigned) [Compound III-14]",30 to 70
10,"FC(F)(F)Oc1ccc(-c2cn3c(C(F)(F)F)nnc3cn2)c(C2CC2)c1 [Compound III-1, 6-[2-cyclopropyl-4-(trifluoromethoxy)phenyl]-3-(trifluoromethyl)-[1,2,4]triazolo[4,3-a]pyrazine]",> 70
11,"CCO[C@H](C)c1nnc2cnc(-c3cnc(OC(C)(C)C(F)(F)F)c(F)c3)cn12 [Compound I-13, (R)-3-(1-ethoxyethyl)-6-(5-fluoro-6-((1,1,1-trifluoro-2-methylpropan-2-yl)oxy)pyridin-3-yl)-[1,2,4]triazolo[4,3-a]pyrazine]",30 to 70
12,"CO[C@H](C)c1nnc2cnc(-c3ccc(OC(C)(C)C(F)(F)F)nc3)cn12 (single isomer, unassigned) [Compound I-9]",30 to 70
13,"COC(C)(C)c1nnc2cnc(-c3ccc(OCC(F)(F)F)nc3)cn12 [Compound II-5, 3-(2-methoxypropan-2-yl)-6-(6-(2,2,2-trifluoroethoxy)pyridin-3-yl)-[1,2,4]triazolo[4,3-a]pyrazine]",< 30
14,"C[C@@H](Oc1ccc(-c2cn3c(C(F)F)nnc3cn2)cn1)C(F)(F)F [Compound III-13, (R)-3-(difluoromethyl)-6-(6-((1,1,1-trifluoropropan-2-yl)oxy)pyridin-3-yl)-[1,2,4]triazolo[4,3-a]pyrazine]",> 70
15,"CO[C@@H](C)c1nnc2cnc(-c3ccc(O[C@@H](C4CC4)C(F)(F)F)nc3)cn12 (single isomer, unassigned) [Compound I-21]",< 30
16,"COC(C)(C)c1nnc2cnc(-c3cnc(O[C@H](C)C(F)(F)F)c(F)c3)cn12 [Compound II-8, (R)-6-(5-fluoro-6-((1,1,1-trifluoropropan-2-yl)oxy)pyridin-3-yl)-3-(2-methoxypropan-2-yl)-[1,2,4]triazolo[4,3-a]pyrazine]",30 to 70
17,"CCO[C@@H](C)c1nnc2cnc(-c3ccc(OC4(C(F)(F)F)CCC4)nc3)cn12 [Compound I-11, (S)-3-(1-ethoxyethyl)-6-(6-(1-(trifluoromethyl)cyclobutoxy)pyridin-3-yl)-[1,2,4]triazolo[4,3-a]pyrazine]",30 to 70
18,"CCOC(C)(C)c1nnc2cnc(-c3ccc(OC(C)(C)C(F)(F)F)nc3)cn12 [Compound II-15, 3-(2-ethoxypropan-2-yl)-6-(6-((1,1,1-trifluoro-2-methylpropan-2-yl)oxy)pyridin-3-yl)-[1,2,4]triazolo[4,3-a]pyrazine]",30 to 70

row,SMILES,inhibition at 1 µM [%]
1,"CO[C@@H](C)c1nnc2cnc(-c3ccc(O[C@H](C4CC4)C(F)(F)F)nc3)cn12 (single isomer, unassigned) [Compound I-23]",< 30
2,"COC(F)(F)c1nnc2cnc(-c3ccc([C@@H]4CC4(F)F)cc3)cn12 (single isomer, unassigned) [Compound III-3]",> 70
3,"CO[C@@H](C)c1nnc2cnc(-c3ccc(OC4(C(F)(F)F)CCC4)nc3)cn12 (single isomer, unassigned) [Compound I-5]",30 to 70
4,"C[C@H](Oc1ccc(-c2cn3c(C(F)(F)Cl)nnc3cn2)cn1)C(F)(F)F [Compound II-7, (S)-3-(chlorodifluoromethyl)-6-(6-((1,1,1-trifluoropropan-2-yl)oxy)pyridin-3-yl)-[1,2,4]triazolo[4,3-a]pyrazine]",30 to 70
5,"CO[C@H](C)c1nnc2cnc(-c3cnc(OC(C)(C)C(F)(F)F)c(F)c3)cn12 (single isomer, unassigned) [Compound I-1]",> 70
6,"CCOC(F)(F)c1nnc2cnc(-c3ccc([C@H](C)OCC(F)(F)F)cc3C)cn12 (single isomer, unassigned) [Compound III-10]",< 30
7,"C[C@H](Oc1ccc(-c2cn3c(C(F)F)nnc3cn2)cn1)C(F)(F)F [Compound III-16, (S)-3-(difluoromethyl)-6-(6-((1,1,1-trifluoropropan-2-yl)oxy)pyridin-3-yl)-[1,2,4]triazolo[4,3-a]pyrazine]",> 70
8,"CO[C@H](C)c1nnc2cnc(-c3cnc(OC4(C(F)(F)F)CCC4)c(F)c3)cn12 (single isomer, unassigned) [Compound I-3]",30 to 70
9,"CO[C@@H](C)c1nnc2cnc(-c3cnc(OC(C)(C)C(F)(F)F)c(F)c3)cn12 (single isomer, unassigned) [Compound I-2]",30 to 70
10,"CO[C@@H](C)c1nnc2cnc(-c3cnc(O[C@H](C4CC4)C(F)(F)F)c(F)c3)cn12 (single isomer, unassigned) [Compound I-16]",30 to 70
11,"COC(F)(F)c1nnc2cnc(-c3ccc([C@@H]4CC4(F)F)cc3C)cn12 (single isomer, unassigned) [Compound III-8]",> 70
12,"COC(C)(C)c1nnc2cnc(-c3cnc(OC(C)(C)C(F)(F)F)c(F)c3)cn12 [Compound II-10, 6-[5-fluoro-6-(2,2,2-trifluoro-1,1-dimethyl-ethoxy)-3-pyridyl]-3-(1-methoxy-1-methyl-ethyl)-[1,2,4]triazolo[4,3-a]pyrazine]",> 70
13,"COC(C)(C)c1nnc2cnc(-c3ccc(OC4(C(F)(F)F)CCC4)nc3)cn12 [Compound II-13, 3-(1-methoxy-1-methyl-ethyl)-6-[6-[1-(trifluoromethyl)cyclobutoxy]-3-pyridyl]-[1,2,4]triazolo[4,3-a]pyrazine]",30 to 70
14,"FC(F)(F)c1nnc2cnc(-c3ccc(O[C@@H](C4CC4)C(F)(F)F)nc3)cn12 [Compound III-15, (S)-6-(6-(1-cyclopropyl-2,2,2-trifluoroethoxy)pyridin-3-yl)-3-(trifluoromethyl)-[1,2,4]triazolo[4,3-a]pyrazine]",> 70
15,"COC(C)(C)c1nnc2cnc(-c3cnc(O[C@@H](C)C(F)(F)F)c(F)c3)cn12 [Compound II-9, (S)-6-(5-fluoro-6-((1,1,1-trifluoropropan-2-yl)oxy)pyridin-3-yl)-3-(2-methoxypropan-2-yl)-[1,2,4]triazolo[4,3-a]pyrazine]",30 to 70
16,"COC1(c2nnc3cnc(-c4cnc(O[C@H](C)C(F)(F)F)c(F)c4)cn23)CC1 [Compound II-2, (R)-6-(5-fluoro-6-((1,1,1-trifluoropropan-2-yl)oxy)pyridin-3-yl)-3-(1-methoxycyclopropyl)-[1,2,4]triazolo[4,3-a]pyrazine]",< 30
17,"CCOC(F)(F)c1nnc2cnc(-c3ccc(COCC(F)(F)F)cc3)cn12 [Compound III-11, 3-(ethoxydifluoromethyl)-6-(4-((2,2,2-trifluoroethoxy)methyl)phenyl)-[1,2,4]triazolo[4,3-a]pyrazine]",30 to 70
